Legend:
green foxtail = experiment: Test C postemergence herbicide test; type: in vivo, Setaria viridis
How it was run: (§1)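 Plants were grown to the 1- to 4-leaf stage (2–18 cm) and then treated postemergence, or grown to the 2-leaf stage for the flooded paddy test. They were held in a greenhouse for 12 to 14 days and then scored by eye against controls, where 0 is no effect and 100 is complete control.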

wheat = experiment: Test C postemergence herbicide test; type: in vivo, Triticum aestivum
How it was run: as §1

dallisgrass = experiment: Test E pre-/postemergence herbicide test; type: in vivo, Paspalum dilatatum; conditions: Preemergence
Source text: (§2) Seeds of plant species selected from bipinnate beggarticks (Bidens bipinnata L.), hairy beggarticks (Bidens radiata Thuill.), bermudagrass (Cynodon dactylon (L.) Pers.), Surinam grass (Urochloa decumbens (Staph) R. D. Webster, previously named Brachiaria decumbens Stapf), large crabgrass (Digitaria sanguinalis (L.) Scop.), green foxtail (Setaria viridis (L.) P. Beauv.), goosegrass (Eleusine indica (L.) Gaertn.), johnsongrass (Sorghum halepense (L.) Pers.), kochia (Kochia scoparia (L.) Schrad.), pitted morningglory (Ipomoea lacunosa L.), purple nutsedge (Cyperus rotundus L.), common ragweed (Ambrosia elatior L.), mustard (Brassica nigra (L.) W. D. J. Koch), guineagrass (Panicum maximum Jacq.), dallisgrass (Paspalum dilatatum Poir.), barnyardgrass (Echinochloa crus-galli (L). P. Beauv.), southern sandbur (Cenchrus echinatus L.), common sowthistle (Sonchus oleraceous L.), prickly sida (Sida spinosa L.), Italian ryegrass (Lolium multiflorum Lam.), common purslane (Portulaca oleracea L.), broadleaf signalgrass (Brachiaria platyphylla (Griseb.) Nash), common groundsel (Senecio vulgaris L.), common chickweed (Stellaria media (L.) Vill/Cyr.), tropical spiderwort (Commelina benghalensis L.), annual bluegrass (Poa annua L.), downy bromegrass (Bromus tectorum L.), itchgrass (Rottboellia cochinchinensis (L.) L.f.), quackgrass (Elytrigia repens (L.) Nevski), Canada horseweed (Erigeron Canadensis L.), field bindweed (Convolvulus arvensis L.), spotted spurge (Euphorbia maculata L.), common mallow (Malva sylvestris (=s silvestris) L.), and Russian thistle (Salsola kali L. ssp. Ruthenica (Iljin) Soo) were planted and treated preemergence with test chemicals formulated in a non-phytotoxic solvent mixture which included a surfactant.
(§3) At the same time, plants selected from these weed species were treated with postemergence applications of some of the test chemicals formulated in the same manner. Plants ranged in height from 2 to 18 cm (1- to 4-leaf stage) for postemergence treatments. Treated plants and controls were maintained in a greenhouse for 12 to 14 days, after which time all species were compared to controls and visually evaluated. Plant response ratings, summarized in Table E, are based on a scale of 0 to 100 where 0 is no effect and 100 is complete control. A dash (-) response means no test result.

quackgrass = experiment: Test E pre-/postemergence herbicide test; type: in vivo, Elytrigia repens; conditions: Preemergence
Source text: as §2, §3

Surinam grass = experiment: Test E pre-/postemergence herbicide test; type: in vivo, Urochloa decumbens; conditions: Preemergence
Source text: as §2, §3

johnsongrass = experiment: Test E pre-/postemergence herbicide test; type: in vivo, Sorghum halepense; conditions: Preemergence
Source text: as §2, §3

Italian ryegrass = experiment: Test E pre-/postemergence herbicide test; type: in vivo, Lolium multiflorum; conditions: Preemergence
Source text: as §2, §3

broadleaf signalgrass = experiment: Test E pre-/postemergence herbicide test; type: in vivo, Brachiaria platyphylla; conditions: Preemergence
Source text: as §2, §3

pitted morningglory = experiment: Test E pre-/postemergence herbicide test; type: in vivo, Ipomoea lacunosa; conditions: Preemergence
Source text: as §2, §3

large crabgrass = experiment: Test E pre-/postemergence herbicide test; type: in vivo, Digitaria sanguinalis; conditions: Preemergence
Source text: as §2, §3

annual bluegrass = experiment: Test E pre-/postemergence herbicide test; type: in vivo, Poa annua; conditions: Preemergence
Source text: as §2, §3

[1] = Postemergence, 250 g ai/ha, scale 0 to 100, 0 no effect, 100 complete control
[2] = postemergence, 125 g ai/ha, scale 0 to 100
[3] = postemergence, 62 g ai/ha, scale 0 to 100
[4] = Postemergence, 500 g ai/ha, scale 0 to 100
[5] = 250 g ai/ha, scale 0 (no effect) to 100 (complete control)
[6] = 500 g ai/ha, scale 0 (no effect) to 100 (complete control)
[7] = Postemergence, 500 g ai/ha, scale 0 to 100, 0 no effect, 100 complete control

With CCn1nc(C(C)(C)C)cc1C(=O)Nc1cccc(C(=O)NCC2CC2)c1 [Compound 62] the “Plant response rating, Foxtail, Green” value (green foxtail; [1]) was 50, the “Plant response rating, Foxtail, Green” value (green foxtail; [2]) was 50 and the “Plant response rating, Foxtail, Green” value (green foxtail; [3]) was 40. For the same compound, the “Plant response rating, Wheat” value (wheat; [1]) was 10, the “Plant response rating, Wheat” value (wheat; [2]) was 10 and the “Plant response rating, Wheat” value (wheat; [3]) was 10.
With CCCCOc1cccc(NC(=O)c2cc(C(C)(C)C)nn2CC)c1 [Compound 137] the “Foxtail, Green plant response rating” value (green foxtail; [4]) was 50, the “Plant response rating, Foxtail, Green” value (green foxtail; [1]) was 50 and the “Plant response rating, Foxtail, Green” value (green foxtail; [2]) was 50. The “Plant response rating, Foxtail, Green” value (green foxtail; [3]) was 30, the “Wheat plant response rating” value (wheat; [4]) was 40 and the “Plant response rating, Wheat” value (wheat; [1]) was 30. For the same compound, the “Plant response rating, Wheat” value (wheat; [2]) was 30 and the “Plant response rating, Wheat” value (wheat; [3]) was 30.
For CCN1N=C(C(C)(C)C)CC1C(=O)Nc1cc(C(=O)N(C)C)ccc1F (centres unmarked) [Compound 268, N-[5-[(dimethylamino)carbonyl]-2-fluorophenyl]-3-(1,1-dimethylethyl)-1-ethyl-4,5-dihydro-1H-pyrazole-5-carboxamide], the “Plant response rating, Foxtail, Green” value (green foxtail; [1]) was 50, the “Plant response rating, Foxtail, Green” value (green foxtail; [2]) was 45 and the “Plant response rating, Foxtail, Green” value (green foxtail; [3]) was 40. The “Plant response rating, Dallisgrass” value (dallisgrass; 62 g ai/ha, scale 0 to 100) was 70, the “Plant response rating, Dallisgrass” value (dallisgrass; 125 g ai/ha, scale 0 to 100) was 80 and the “Plant response rating, Dallisgrass” value (dallisgrass; [5]) was 85. The “Plant response rating, Dallisgrass” value (dallisgrass; [6]) was 85, the “Plant response rating, Quackgrass” value (quackgrass; 62 g ai/ha, scale 0 to 100) was 40 and the “Plant response rating, Quackgrass” value (quackgrass; 125 g ai/ha, scale 0 to 100) was 85. The “Plant response rating, Quackgrass” value (quackgrass; [5]) was 95, the “Plant response rating, Quackgrass” value (quackgrass; [6]) was 95 and the “Plant response rating, Surinam Grass” value (Surinam grass; 125 g ai/ha, scale 0 to 100) was 90. The “Plant response rating, Surinam Grass” value (Surinam grass; [6]) was 100, the “Plant response rating, Johnsongrass” value (johnsongrass; 62 g ai/ha, scale 0 to 100) was 30 and the “Plant response rating, Johnsongrass” value (johnsongrass; 125 g ai/ha, scale 0 to 100) was 50. The “Plant response rating, Johnsongrass” value (johnsongrass; [5]) was 50, the “Plant response rating, Johnsongrass” value (johnsongrass; [6]) was 80 and the “Plant response rating, Ryegrass, Italian” value (Italian ryegrass; 62 g ai/ha, scale 0 to 100) was 95. The “Plant response rating, Ryegrass, Italian” value (Italian ryegrass; 125 g ai/ha, scale 0 to 100) was 95, the “Plant response rating, Ryegrass, Italian” value (Italian ryegrass; [5]) was 95 and the “Plant response rating, Ryegrass, Italian” value (Italian ryegrass; [6]) was 95. For the same compound, the “Plant response rating, Signalgrass” value (broadleaf signalgrass; 62 g ai/ha, scale 0 to 100) was 20, the “Plant response rating, Signalgrass” value (broadleaf signalgrass; 125 g ai/ha, scale 0 to 100) was 60 and the “Plant response rating, Signalgrass” value (broadleaf signalgrass; [5]) was 80. The “Plant response rating, Signalgrass” value (broadleaf signalgrass; [6]) was 80, the “Plant response rating, Morningglory” value (pitted morningglory; 62 g ai/ha, scale 0 to 100) was 10 and the “Plant response rating, Morningglory” value (pitted morningglory; 125 g ai/ha, scale 0 to 100) was 10. The “Plant response rating, Morningglory” value (pitted morningglory; [5]) was 40, the “Plant response rating, Morningglory” value (pitted morningglory; [6]) was 60 and the “Plant response rating, Crabgrass, Large” value (large crabgrass; 62 g ai/ha, scale 0 to 100) was 70. For the same compound, the “Plant response rating, Crabgrass, Large” value (large crabgrass; 125 g ai/ha, scale 0 to 100) was 80, the “Plant response rating, Crabgrass, Large” value (large crabgrass; [5]) was 95 and the “Plant response rating, Crabgrass, Large” value (large crabgrass; [6]) was 95. The “Plant response rating, Wheat” value (wheat; [1]) was 25, the “Plant response rating, Wheat” value (wheat; [2]) was 0 and the “Plant response rating, Wheat” value (wheat; [3]) was 0. The “Plant response rating, Bluegrass” value (annual bluegrass; 62 g ai/ha, scale 0 to 100) was 80, the “Plant response rating, Bluegrass” value (annual bluegrass; 125 g ai/ha, scale 0 to 100) was 95 and the “Plant response rating, Bluegrass” value (annual bluegrass; [5]) was 95. For the same compound, the “Plant response rating, Bluegrass” value (annual bluegrass; [6]) was 95.
CCOC(=O)c1cccc(NC(=O)c2cc(C3(C)CC3)nn2CC)c1 [Compound 295] was tested, and the “Plant response rating, Foxtail, Green” value (green foxtail; [1]) was 60, the “Plant response rating, Foxtail, Green” value (green foxtail; [2]) was 50 and the “Plant response rating, Foxtail, Green” value (green foxtail; [3]) was 45. For the same compound, the “Plant response rating, Wheat” value (wheat; [1]) was 45, the “Plant response rating, Wheat” value (wheat; [2]) was 45 and the “Plant response rating, Wheat” value (wheat; [3]) was 45.
For CCn1nc(C2(C)CC2)cc1C(=O)Nc1cc(C(=O)N2CC=CC2)ccc1F [Compound 301], the “Foxtail, Green plant response rating” value (green foxtail; [4]) was 65, the “Plant response rating, Foxtail, Green” value (green foxtail; [1]) was 60 and the “Plant response rating, Foxtail, Green” value (green foxtail; [2]) was 45. For the same compound, the “Plant response rating, Foxtail, Green” value (green foxtail; [3]) was 40, the “Wheat plant response rating” value (wheat; [4]) was 40 and the “Plant response rating, Wheat” value (wheat; [1]) was 55. The “Plant response rating, Wheat” value (wheat; [2]) was 45 and the “Plant response rating, Wheat” value (wheat; [3]) was 40.
For CCn1nc(C(C)(C)C)cc1C(=O)Nc1cc(OC(F)(F)F)ccc1F [Compound 338], the “Plant response rating, Foxtail, Green” value (green foxtail; [1]) was 40, the “Plant response rating, Foxtail, Green” value (green foxtail; [7]) was 50 and the “Plant response rating, Foxtail, Green” value (green foxtail; [2]) was 40. The “Plant response rating, Foxtail, Green” value (green foxtail; [3]) was 30, the “Plant response rating, Wheat” value (wheat; [1]) was 35 and the “Plant response rating, Wheat” value (wheat; [7]) was 45. The “Plant response rating, Wheat” value (wheat; [2]) was 25 and the “Plant response rating, Wheat” value (wheat; [3]) was 25.
For CCn1nc(C(C)(C)C)cc1C(=O)Nc1cccc(OS(=O)(=O)CC)c1 [Compound 408], the “Plant response rating, Foxtail, Green” value (green foxtail; [1]) was 70, the “Plant response rating, Foxtail, Green” value (green foxtail; [7]) was 80 and the “Plant response rating, Foxtail, Green” value (green foxtail; [2]) was 60. The “Plant response rating, Foxtail, Green” value (green foxtail; [3]) was 40, the “Plant response rating, Wheat” value (wheat; [7]) was 40 and the “Plant response rating, Wheat” value (wheat; [2]) was 30. The “Plant response rating, Wheat” value (wheat; [3]) was 30.

— US20060069132A1, “Azolecarboxamide herbicides” (priority 2004, published 2006)
